Data as given in article PMC10574185, “Encapsulation and Biological Activity of Hesperetin Derivatives with HP-β-CD” (Molecules, 2023).
Values after ≈ are worked out from the molar mass of the structure shown. One block for each molecule: values may come before it.

Legend:
[1] = system: Escherichia coli ATCC 35218; experiment: Minimal inhibition concentration (dilution + diffusion-well); format: cell-based; details: ATCC35218, 37 °C, 18 h
Method: (§1) The MIC was performed for compounds and strains sensitive to their action in the antagonistic test. Minimum inhibitory concentration was determined by combining the dilution method with the diffusion-well method. Test compounds at a concentration of 500 μM were prepared in 5% (w/w) DMSO. Surface layer of microorganisms, against which antagonistic activity was noted, were prepared in the same way as for the antagonistic test. Then, two-fold sequential dilutions of the test compounds in the range of 500 µM to 62.5 µM were prepared. Wells with a diameter of 8 mm cut in the Mueller–Hinton Agar (Merck, Darmstadt, Germany) with the test strain were added with 50 µL of the prepared dilutions, which corresponded to the following concentrations of the tested compounds: […], 1.25 mM, 0.625 mM, and […]. Petri dishes prepared in this way were incubated at 37 °C for 18 h. After a given time, the MIC value was read. The MIC concentration expressed in µM was the first concentration of the tested compounds at which growth inhibition of the test strain was observed.

[2] = system: Escherichia coli ATCC 11303; experiment: as above; format: cell-based; details: ATCC11303, 37 °C, 18 h
Method: as §1

[3] = system: Staphylococcus aureus ATCC 29737; experiment: as above; format: cell-based; details: ATCC29737, 37 °C, 18 h
Method: as §1

Pseudomonas aeruginosa = system: Pseudomonas aeruginosa; parameters: method as in PMID 36009336; details: cited from earlier work
Staphylococcus aureus = system: Staphylococcus aureus; parameters: method as in PMID 36009336; details: cited from earlier work
[4] = pH 6.5; cited from earlier work
Escherichia coli = system: Escherichia coli; parameters: method as in PMID 36009336; details: cited from earlier work
prostate cancer cells = details: cited from earlier work
Bacillus cereus = system: Bacillus cereus; parameters: method as in PMID 36009336; details: cited from earlier work

MIC [1]: 2.5 µM
Compound: COc1ccc(C2C/C(=N\NC(=O)c3ccccc3)c3c(O)cc(O)cc3O2)cc1O (racemic) [HHSB]

MIC [2]: 2.5 µM
Compound: COc1ccc(C2C/C(=N\NC(=O)c3ccncc3)c3c(O)cc(O)cc3O2)cc1O (racemic) [HIN]

MIC [3]: 2.5 µM
Compound: COc1ccc(C2CC(=NNC(N)=S)c3c(O)cc(O)cc3O2)cc1O (centres unmarked) [HTSC, N-[2,3-dihydro-5,7-dihydroxy-2-(3-hydroxy-4-methoxyphenyl)chromen-4-ylidene]thiosemicarbazide]

MIC [2]: 2.5 µM
Compound: COc1ccc(C2CC(=O)c3c(O)cc(O)cc3O2)cc1O (centres unmarked) [Hesperetin, 3′,5,7-Trihydroxy-4′-methoxyflavanone]
MIC (Pseudomonas aeruginosa): 500 µg/mL (≈ 1650 µM) | MIC (Staphylococcus aureus): 125 µg/mL (≈ 414 µM) | increase of hesperetin solubility with HP-β-CD [4]: 164 times | MIC (Escherichia coli): 500 µg/mL (≈ 1650 µM) | decrease in the cytotoxicity of cabazitaxel (prostate cancer cells): 13.1 fold | decrease in the cytotoxicity of docetaxel (prostate cancer cells): 9.8 fold | MIC (Bacillus cereus): 250 µg/mL (≈ 827 µM)
